# According to patent US9205073B2, “Method for treating virus infection using derivative of aniline” (CHINA MEDICAL UNIVERSITY, priority 2014, dated 2015):
# Legend:
# [1] = MTT assay, cell survival / CC50 in RD cells; format: cell-based; conditions: human, read-out: concentration of 50% cytotoxicity (CC50)
# Description: (§1) In this example, 3-(4,5-dimethylthiazol-2-yl)-2,5-diphenyl tetrazolium bromide (MTT) was used to determine if the survival rate of BHK-21 cells, TE671cells and RD cells would be influenced when being treated with different concentrations of compound 1 prepared in Example 1. The concentration of 50% cytotoxicity (CC50) of compound 1 in BHK-21 cells, TE671cells and RD cells was also calculated.
# (§2) MTT is a water-soluble tetrazolium salt which can react in the mitochondrial respiratory chain in living cells to metabolize and reduce the tetrazolium bromide shown in the structure of MTT and to form an water-insoluble purple crystal formazan under the reaction of succinate dehydrogenase (SDH) and cytochrome c (cyt c). The amount of the produced crystal is directly proportional to the number of living cells (because the SDH will disappear from dead cells, and thus, the MTT cannot be reduced). Furthermore, a mitochondrium is an organelle in cells that is most sensitive to the environment, and thus, the MTT assay can serve as a marker for the survival rate of cells treated by the drug.
# (§3) BHK-21 cells, TE671cells and RD cells were cultured in a 96-well culture plate, respectively, with an initial density of 3×10^3 per well, and with 100 μl of 2% FBS-containing MEM medium per well. […] The absorbances of the samples were measured by ELISA at a wavelength of 570/630 nm.
# JEV T1P1 [2] = assay: Cytopathic effect test, JEV T1P1-infected TE671 cells; format: cell-based, Japanese encephalitis virus
# Description: (§4) BHK-21 cells and/or TE671cells were separately cultured in a 24-well culture plate, with an initial density of 3×10^4 per well, and with 1 ml of 2% FBS-containing MEM medium per well. The cells were incubated in an incubator (37° C., 5% CO2) overnight, and the medium was removed until the cells adhered to the plate. Then, fresh 2% FBS-containing MEM medium was simultaneously added into each well of the culture plate. The cells were infected with a JEV T1P1 virus strain, wherein the amount of JEV T1P1 used to infect BHK-21 cells was a multiplicity of infection (M.O.I.)=0.1, and the amount of JEV T1P1 used to infect TE671 cells was M.O.I.=0.05. Different concentrations of compound 1 (final concentrations were 0, 2.5, 25 and 125 μM, respectively) were added into different wells. The culture plate was placed into an incubator (37° C., 5% CO2) and maintained therein.
# When BHK-21 cells were infected with JEV T1P1 virus strain for 48 and 72 hours as indicated in the above experiment (1), the cytopathic effect was observed by photography, while the cytopathic effect of TE671 cells was observed by photography when TE671 cells were infected with the JEV T1P1 virus strain for 36 and 48 hours. In addition, 200 μl culture medium supernatant of both cells was collected from each time point (i.e., 48 and 72 hours), thereby, providing the use for a viral plaque test in Example 4.
# JEV T1P1 [3] = assay: Viral plaque test, JEV T1P1 replication in TE671 cells; format: cell-based, Japanese encephalitis virus; conditions: treated for 36 or 48 hours
# Description: as §4, with “therein. […]” for “therein.”
# BHK-21 cells were cultured in a 6-well culture plate at an initial density of 3×10^5 per well with 2 ml of 2% FBS-containing MEM medium per well. […] The cells were washed with clear water, and then the viral plaques were counted to calculate the virus titer.
# EV71 = assay: Enterovirus infection-induced cytopathic effect / cell survival in RD cells with interferon; format: cell-based, enterovirus type 71; conditions: for Cell survival rate: 36 hours
# Description: The RD cells were cultured in a 24-well culture plate at an initial density of 3×10^4 per well with 1 ml of 2% FBS-containing MEM medium per well. The cells were incubated in an incubator (37° C., 5% CO2) overnight. The medium was removed until the cells adhered to the plate. 1 ml of fresh 2% FBS-containing MEM medium was simultaneously added into each well. The RD cells were infected with an EV71 virus strain (M.O.I.=0.1). […] The RD cells were incubated in an incubator (37° C., 5% CO2) for 36 hours, and then their morphology was observed by photography. In addition, 200 μl of culture medium supernatant was collected from each well and stored at −80° C. for conducting the viral plaque test of Example 12.
# JEV T1P1 [4] = assay: Apoptosis test (Annexin V/PI flow cytometry), JEV T1P1-infected TE671 cells; format: cell-based, Japanese encephalitis virus; conditions: JEV T1P1 infection 36 hours, compound 125 μM; infected without compound 20.1%
# Description: as §4
# BHK-21 cells and TE 671 cells were washed with PBS after being infected with the JEV T1P1 virus strain for 36 hours in the above experiment (1). Then, PBS was removed. Trypsin-EDTA (150 μl) was added into each well. The cells were incubated in an incubator at 37° C. for 3 minutes. Then, 1 ml MEM medium was added into each well to neutralize EDTA. […] The cells were maintained in the dark for 5 to 10 minutes, and then analyzed by flow cytomerty.
# [5] = MTT assay, cell survival / CC50 in TE671 cells; format: cell-based; conditions: human, read-out: concentration of 50% cytotoxicity (CC50)
# Description: as §1, §2, §3
smiles,measurement,setting,value
"CCOC(=O)C1=C(Nc2cc(C)cc(C)c2)OCC1=O [Compound 1, ethyl 2-(3′,5′-dimethylanilino)-4-oxo-4,5-dihydrofuran-3-carboxylate]",CC50 at 48 h,[1],222 µM
same,JEV T1P1-induced cytopathic effect,"JEV T1P1 [2]; infected 36 hours, M.O.I.=0.05, compound 25 μM simultaneously",inhibited
same,JEV T1P1-induced cytopathic effect,"JEV T1P1 [2]; infected 48 hours, M.O.I.=0.05, compound 25 μM",inhibited
same,replication of JEV T1P1 (virus titer),JEV T1P1 [3],significantly decreased
same,Cell survival rate,"EV71; EV71 M.O.I.=0.1, IFN-β 100 unit/ml + Compound 1 2.5 μM",46.9%
same,Cell survival rate,"EV71; EV71 M.O.I.=0.1, IFN-β 100 unit/ml + Compound 1 25 μM",55.86%
same,Cell survival rate,"EV71; EV71 M.O.I.=0.1, IFN-β 100 unit/ml + Compound 1 125 μM",83.3%
same,EV71-induced cytopathic effect,"EV71; infected 36 hours, combination of compound 1 and 100 units/ml of IFN-β",effectively inhibited
same,Cell survival rate,"EV71; no EV71, no IFN-β, Compound 1 125 μM",86.85%
same,ratio of TE671 cells getting into late apoptosis,JEV T1P1 [4],4.7%
same,CC50 at 48 h,[5],189 µM
